In ChEMBL document CHEMBL3826956, “Cholinesterase inhibitory activity of isoquinoline alkaloids from three Cryptocarya species (Lauraceae)” (Bioorg Med Chem, 2016):

Legend:
[1] = target: Acetylcholinesterase (Electrophorus electricus) (UniProt O42275); assay: Inhibition of electric eel AChE at 100 ug/ml preincubated for 15 mins followed by addition of acetylthiocholine iodide as substrate measured after 30 mins by Ellman's microplate assay
Acetylcholinesterase = Acetylcholinesterase (Electrophorus electricus, UniProt O42275); assay: Inhibition of electric eel AChE preincubated for 15 mins followed by addition of acetylthiocholine iodide as substrate measured after 30 mins by Ellman's microplate assay
Chain of Acetylcholinesterase (O42275 whole entry): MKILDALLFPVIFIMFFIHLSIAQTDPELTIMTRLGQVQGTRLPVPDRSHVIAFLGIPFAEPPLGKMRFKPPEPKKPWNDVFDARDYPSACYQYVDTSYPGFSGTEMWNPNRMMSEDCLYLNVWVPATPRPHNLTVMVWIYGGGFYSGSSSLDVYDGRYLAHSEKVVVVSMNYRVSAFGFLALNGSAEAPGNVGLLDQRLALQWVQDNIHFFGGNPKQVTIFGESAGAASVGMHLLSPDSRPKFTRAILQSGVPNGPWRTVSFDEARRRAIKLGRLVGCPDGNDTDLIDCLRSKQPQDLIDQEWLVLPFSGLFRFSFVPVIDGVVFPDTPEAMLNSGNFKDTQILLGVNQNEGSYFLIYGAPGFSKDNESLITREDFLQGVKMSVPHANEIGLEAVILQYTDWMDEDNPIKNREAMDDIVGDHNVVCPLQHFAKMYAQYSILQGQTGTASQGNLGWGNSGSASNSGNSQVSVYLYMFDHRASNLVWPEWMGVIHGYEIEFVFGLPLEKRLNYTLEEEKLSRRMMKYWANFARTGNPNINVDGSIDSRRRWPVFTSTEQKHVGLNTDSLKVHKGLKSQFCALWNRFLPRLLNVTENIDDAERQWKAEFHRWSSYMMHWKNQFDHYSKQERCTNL

[2] = Selectivity ratio, ratio of IC50 for electric eel AChE to equine serum BChE
[3] = target: Cholinesterase (Equus caballus) (UniProt P81908); assay: Inhibition of equine serum BChE at 100 ug/ml preincubated for 15 mins followed by addition of S-butyrylthiocholine chloride as substrate measured after 30 mins by Ellman's microplate assay
Chain of Cholinesterase (Equus caballus) (P81908 whole entry): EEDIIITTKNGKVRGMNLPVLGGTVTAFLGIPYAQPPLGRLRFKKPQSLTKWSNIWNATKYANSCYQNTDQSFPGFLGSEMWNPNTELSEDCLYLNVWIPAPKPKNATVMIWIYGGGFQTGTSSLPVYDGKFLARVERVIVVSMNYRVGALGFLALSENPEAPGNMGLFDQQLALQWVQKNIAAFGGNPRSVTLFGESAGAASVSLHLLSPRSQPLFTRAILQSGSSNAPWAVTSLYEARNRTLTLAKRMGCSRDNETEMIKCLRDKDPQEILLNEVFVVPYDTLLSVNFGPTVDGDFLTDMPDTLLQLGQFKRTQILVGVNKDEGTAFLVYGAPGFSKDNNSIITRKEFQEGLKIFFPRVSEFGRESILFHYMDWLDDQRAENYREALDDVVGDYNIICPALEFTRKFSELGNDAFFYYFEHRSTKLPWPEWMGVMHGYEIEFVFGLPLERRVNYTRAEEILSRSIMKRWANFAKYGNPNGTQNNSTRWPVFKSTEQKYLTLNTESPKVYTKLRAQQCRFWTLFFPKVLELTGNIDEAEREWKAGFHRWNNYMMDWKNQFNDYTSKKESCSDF

Cholinesterase [4] = target: T1, Cholinesterase (Equus caballus, UniProt P81908); assay: Inhibition of equine serum BChE preincubated for 15 mins followed by addition of S-butyrylthiocholine chloride as substrate measured after 30 mins by Ellman's microplate assay
T1 sequence (P81908 whole entry): as above

[5] = Selectivity ratio, ratio of IC50 for equine serum BChE to electric eel AChE
Cholinesterase [6] = target: T1, Cholinesterase; assay: Mixed-type inhibition of equine serum BChE preincubated for 15 mins followed by addition of S-butyrylthiocholine chloride as substrate measured after 30 mins by Lineweaver-Burk plot analysis

Chain of Acetylcholinesterase (Electrophorus electricus) (O42275 24-633 limits assumed): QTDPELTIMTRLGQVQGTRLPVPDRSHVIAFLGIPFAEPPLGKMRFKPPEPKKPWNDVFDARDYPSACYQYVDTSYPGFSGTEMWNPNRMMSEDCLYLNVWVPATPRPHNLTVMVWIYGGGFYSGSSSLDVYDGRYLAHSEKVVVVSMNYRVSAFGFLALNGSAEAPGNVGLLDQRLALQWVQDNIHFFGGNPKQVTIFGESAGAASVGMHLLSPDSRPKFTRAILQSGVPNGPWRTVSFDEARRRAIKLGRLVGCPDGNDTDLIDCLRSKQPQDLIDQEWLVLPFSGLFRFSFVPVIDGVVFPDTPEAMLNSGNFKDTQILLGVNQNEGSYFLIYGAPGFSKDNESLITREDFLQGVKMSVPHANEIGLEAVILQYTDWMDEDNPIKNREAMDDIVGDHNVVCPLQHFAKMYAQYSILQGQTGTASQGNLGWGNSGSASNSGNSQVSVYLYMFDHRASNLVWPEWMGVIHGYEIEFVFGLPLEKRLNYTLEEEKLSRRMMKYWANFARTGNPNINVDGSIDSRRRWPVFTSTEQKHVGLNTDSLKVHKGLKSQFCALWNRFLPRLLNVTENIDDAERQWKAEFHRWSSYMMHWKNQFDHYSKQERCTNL

Compound	inhibition [1]	IC50 (Acetylcholinesterase)	Ratio IC50 [2]	inhibition [3]	IC50 (Cholinesterase [4])	Ratio IC50 [5]	Ki (Cholinesterase [6])
COc1ccc(C[C@H]2c3cc(O)c(OC)cc3CCN2C)cc1O [(S)-RETICULINE]	53%	301 µM	4.63	84.1%	65 µM	0.22	
COc1cc2c3c(c1OC)-c1cc4c(cc1C[C@@H]3NCC2)OCO4	50.4%	206 µM	2.18	75.8%	94.4 µM	0.46	
COc1c(OC)c(OC)c2c(ccc3ccccc32)c1CCN(C)C	31.6%			95.2%	3.95 µM		6.72 µM
COc1cc2c(cc1O)C[C@@H]1NCCc3cc(OC)c(OC)c-2c31	17.5%			22.6%			
COc1cc2c(cc1O)CCN(C)C2Cc1ccc(O)cc1 (stereo not given)	14.9%			37.3%			
COc1ccc(C2=C(c3ccc(O)cc3)CN3CCC[C@@H]3C2)cc1OC	51.4%	202 µM	1.21	59.4%	167 µM	0.83	
COc1cc2c(cc1O)C[C@H]1c3c(cc(OC)c(OC)c3-2)CCN1C	38.8%			51%	219 µM		
COc1cc2c3c(c1O)C1(CCC(O)CC1)CC3NCC2 (stereo not given)	27.9%			52.1%	288 µM		
COc1cc(CCN(C)C)c2ccc3ccccc3c2c1OC	2.06%			83.9%	19.3 µM		
